Results published in PMC3758034, “New Insight into the SAR of Pyrimido [4,5-b][1,4] Benzothiazines as 15-lipoxygenase Inhibitors” (Iranian Journal of Basic Medical Sciences, 2013).

Target: soybean 15-lipoxygenase (SLO) (Glycine max, UniProt P08170)
Assay: SLO screening assay (spectrophotometric MBTH-DMAB peroxide formation method, 598 nm)
Assay type: biochemical
Conditions: pH = 8.3 versus pH = 7.0
Description: Linoleic acid and two assay solutions (A and B) were prepared in advance. Solution A was 50 mM DMAB in a l00 mM phosphate buffer (pH 7.0). Solution B was a mixture of l0 mM MBTH (3 mL), hemoglobin (5 mg/mL, 3 mL) in 50 mM phosphate buffer at pH 5.0 (25 mL). A linoleic acid solution was prepared by mixing 5 mg of linoleic acid with 0.5 mL ethanol and then diluting with KOH 100 mM to a final volume of 5 mL. […] A control test was done with the same volume of ethanol. After the pre-incubation, linoleic acid solution (50 µL) was added to start the peroxidation reaction, and, 7 min later, solution A (270 µL) and then solution B (130 µL) was added to start the color formation. 5 min later, 200 µL of a 2% SDS solution was added to terminate the reaction. The absorbance at 598 nm was compared with control test. The IC50 results are outlined in Table 1.
It is interesting to note that the aforementioned amino acids with the exception of Val769 and Phe576 are conserved ([18], [19]). […] The inhibitory activity of compounds 1a-f, 2a-f towards SLO enzyme was determined by measuring the amount of peroxide formation. In this method, with the help of a spectrophotometer and by using a mixture of MBTH (3-methyl-2-benzothiazolonhydrazone) and DMAB (3-dimethylaminobenzoic acid) indicators in the presence of hemoglobin at the wavelength of 598 nm, the peroxide concentration was determined ([16]).

soybean 15-lipoxygenase (SLO), sequence (P08170 whole entry): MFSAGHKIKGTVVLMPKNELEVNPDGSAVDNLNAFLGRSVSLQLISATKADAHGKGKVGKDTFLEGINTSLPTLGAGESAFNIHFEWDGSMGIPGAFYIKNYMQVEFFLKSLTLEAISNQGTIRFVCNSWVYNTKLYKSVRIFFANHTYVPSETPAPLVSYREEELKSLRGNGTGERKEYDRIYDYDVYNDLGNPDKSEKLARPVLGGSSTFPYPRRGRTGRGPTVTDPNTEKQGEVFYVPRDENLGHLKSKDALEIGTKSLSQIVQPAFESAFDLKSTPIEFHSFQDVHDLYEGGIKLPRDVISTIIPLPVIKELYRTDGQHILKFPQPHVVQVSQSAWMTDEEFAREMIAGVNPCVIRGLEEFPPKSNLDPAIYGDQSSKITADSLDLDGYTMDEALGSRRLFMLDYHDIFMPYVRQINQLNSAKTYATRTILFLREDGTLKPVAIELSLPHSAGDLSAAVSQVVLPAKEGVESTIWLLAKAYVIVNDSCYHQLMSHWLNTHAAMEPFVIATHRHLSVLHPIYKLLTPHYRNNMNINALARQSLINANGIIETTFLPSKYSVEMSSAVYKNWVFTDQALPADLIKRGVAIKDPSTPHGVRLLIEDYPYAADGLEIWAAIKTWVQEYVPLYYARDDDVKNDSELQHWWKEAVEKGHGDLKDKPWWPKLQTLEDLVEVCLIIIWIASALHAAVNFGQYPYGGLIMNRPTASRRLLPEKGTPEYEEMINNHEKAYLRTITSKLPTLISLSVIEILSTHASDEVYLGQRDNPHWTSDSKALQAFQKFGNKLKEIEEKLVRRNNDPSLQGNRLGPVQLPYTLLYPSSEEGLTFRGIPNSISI

Row | SMILES | IC50 at higher pH
1 | CC1CCN(c2ncc3c(n2)Sc2ccccc2N3)CC1 [1c] | nearly unchanged
2 | Cc1nc(N2CCC(C)CC2)nc2c1Nc1ccccc1S2 [2c] | nearly unchanged
